# Molecular target: RIPK2 (Homo sapiens (Human), UniProt O43353)
# Assay: RIPK2 inhibition, ADP-Glo Kinase Assay
# Type: biochemical
# Settings: 8His-RIPK2 FL enzyme 8 nM, ATP 5 μM, 15 minutes pre-incubation, 60 minutes at 37° C., luminescence
# Summary of the method: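 Full-length 8His-RIPK2 (8 nM) preincubated 15 min at RT with compound (1% DMSO), then 5 μM ATP added for 60 min at 37 °C in HEPES pH 7.5 buffer with Mg2+/Mn2+. ADP measured by ADP-Glo luminescence; activity expressed as % of vehicle control, no-enzyme wells as low control.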
# RIPK2, sequence (O43353 whole entry): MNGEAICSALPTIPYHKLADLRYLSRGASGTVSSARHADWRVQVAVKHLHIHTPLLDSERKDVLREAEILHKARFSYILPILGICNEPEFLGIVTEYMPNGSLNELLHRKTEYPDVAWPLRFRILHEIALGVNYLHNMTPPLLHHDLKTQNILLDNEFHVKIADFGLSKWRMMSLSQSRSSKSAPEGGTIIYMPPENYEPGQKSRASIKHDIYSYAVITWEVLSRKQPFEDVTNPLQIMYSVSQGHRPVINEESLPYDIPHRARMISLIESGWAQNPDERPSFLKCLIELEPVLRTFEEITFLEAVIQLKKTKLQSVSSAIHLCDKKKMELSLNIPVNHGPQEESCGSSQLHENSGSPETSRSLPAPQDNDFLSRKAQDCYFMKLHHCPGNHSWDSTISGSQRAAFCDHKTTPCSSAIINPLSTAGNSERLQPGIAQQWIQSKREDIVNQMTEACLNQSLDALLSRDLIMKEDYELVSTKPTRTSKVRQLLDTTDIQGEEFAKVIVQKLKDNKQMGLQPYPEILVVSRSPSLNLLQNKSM
row,IC50,SMILES
1,6.1 nM,"Cc1ccc(C(=O)NC2CC2)cc1-c1cnn(-c2cncc(OCC3CC3)c2)c1 [Example 146, N-cyclopropyl-3-{1-[5-(cyclopropylmethoxy)pyridin-3-yl]-1H-pyrazol-4-yl}-4-methyl-benzamide]"
2,8.1 nM,"Cc1ccc(C(=O)NC2CC2)cc1-c1cnn(-c2cncc(OCC3CCOCC3)c2)c1 [Example 147, N-cyclopropyl-4-methyl-3-{1-[5-(oxan-4-ylmethoxy)pyridin-3-yl]-1H-pyrazol-4-yl}benzamide]"
3,12 nM,"Cc1ccc(C(=O)NC2CC2)cc1-c1cnn(-c2cncc(OC3CCCC3)c2)c1 [Example 148, 3-{1-[5-(cyclopentyloxy)pyridin-3-yl]-1H-pyrazol-4-yl}-N-cyclopropyl-4-methylbenzamide]"
4,8.9 nM,"CC(=O)N1CCC(Oc2cncc(-n3cc(-c4cc(C(=O)NC5CC5)ccc4C)cn3)c2)CC1 [Example 149, 3-(1-{5-[(1-acelylpiperidin-4-yl)oxy]pyridin-3-yl}-1H-pyrazol-4-yl)-N-cyclopropyl-4-methyl-benzamide]"
5,7 nM,"Cc1ccc(C(=O)NC2CC2)cc1-c1cnn(-c2cncc(OC[C@H]3CCCO3)c2)c1 [Example 150, N-cyclopropyl-4-methyl-3-(1-{5-[(2R)-oxolan-2-ylmethoxy]pyridin-3-yl}-1H-pyrazol-4-yl) benzamide]"
6,6.4 nM,"Cc1ccc(C(=O)NC2CC2)cc1-c1cnn(-c2cncc(OC3CCC(C#N)C3)c2)c1 (stereo not shown) [Example 151, 3-(1-{5-[(3-cyanocyclopentyl)oxy]pyridin-3-yl}-1H-pyrazol-4-yl)-N-cyclopropyl-4-methylbenzamide]"
7,1.6 nM,"Cc1ccc(C(=O)NC2CC2)cc1-c1cnn(-c2cncc(NC3CCN(C(C)CCO)CC3)c2)c1 (stereo not shown) [Example 153, N-cyclopropyl-3-[1-(5-{[1-(4-hydroxybutan-2-yl)piperidin-4-yl]amino}pyridin-3-yl)-1H-pyrazol-4-yl]-4-methylbenzamide]"
8,1.8 nM,"Cc1ccc(C(=O)NC2CC2)cc1-c1cnn(-c2cncc(NC3CCN(CC4CCOC4)CC3)c2)c1 (stereo not shown) [Example 154, N-cyclopropyl-4-methyl-3-[1-(5-{[1-(oxolan-3-ylmethyl)piperidin-4-yl]amino}pyridin-3-yl)-1H-pyrazol-4-yl]benzamide]"
9,1.7 nM,"Cc1ccc(C(=O)NC2CC2)cc1-c1cnn(-c2cncc(NC3CCN(CC4CCOCC4)CC3)c2)c1 [Example 155, N-cyclopropyl-4-methyl-3-[1-(5-{[1-(oxan-4-ylmethyl)piperidin-4-yl]amino}pyridin-3-yl)-1H-pyrazol-4-yl]benzamide]"
10,1.6 nM,"COCC(C)N1CCC(Nc2cncc(-n3cc(-c4cc(C(=O)NC5CC5)ccc4C)cn3)c2)CC1 (stereo not shown) [Example 156, N-cyclopropyl-3-[1-(5-{[1-(1-methoxypropan-2-yl)piperidin-4-yl]amino}pyridin-3-yl)-1H-pyrazol-4-yl]-4-methylbenzamide]"
11,1.9 nM,"Cc1ccc(C(=O)NC2CC2)cc1-c1cnn(-c2cncc(NC3CCN(C(C)CO)CC3)c2)c1 (stereo not shown) [Example 157, N-cyclopropyl-3-[1-(5-{[1-(1-hydroxypropan-2-yl)piperidin-4-yl]amino}pyridin-3-yl)-1H-pyrazol-4-yl]-4-methylbenzamide]"
12,1.2 nM,"CC(=O)N1CCC(N2CCC(Nc3cncc(-n4cc(-c5cc(C(=O)NC6CC6)ccc5C)cn4)c3)CC2)CC1 [Example 158, 3-[1-(5-{[1-(1-acetylpiperidin-4-yl)piperidin-4-yl]amino}pyridin-3-yl)-1H-pyrazol-4-yl]-N-cyclopropyl-4-methylbenzamide]"
13,1.8 nM,"Cc1ccc(C(=O)NC2CC2)cc1-c1cnn(-c2cncc(NC3CCN(C4CCOC4C)CC3)c2)c1 (stereo not shown) [Example 159, N-cyclopropyl-4-methyl-3-[1-(5-{[1-(2-methyloxolan-3-yl)piperidin-4-yl]amino}pyridin-3-yl)-1H-pyrazol-4-yl]benzamide]"
14,1.1 nM,"COC1CCC(N2CCC(Nc3cncc(-n4cc(-c5cc(C(=O)NC6CC6)ccc5C)cn4)c3)CC2)CC1 (stereo not shown) [Example 160, N-cyclopropyl-3-[1-(5-{[1-(4-methoxycyclohexyl)piperidin-4-yl]amino}pyridin-3-yl)-1H-pyrazol-4-yl]-4-methylbenzamide]"
15,1.5 nM,"Cc1ccc(C(=O)NC2CC2)cc1-c1cnn(-c2cncc(NC3CCN(C4CCCOC4)CC3)c2)c1 (stereo not shown) [Example 161, N-cyclopropyl-4-methyl-3-[1-(5-{[1-(oxan-3-yl)piperidin-4-yl]amino}pyridin-3-yl)-1H-pyrazol-4-yl] benzamide]"
16,2.3 nM,"Cc1ccc(C(=O)NC2CC2)cc1-c1cnn(-c2cncc(NC3CCN(C4CCOCC4)CC3)c2)c1 [Example 162, N-cyclopropyl-4-methyl-3-[1-(5-{[1-(oxan-4-yl)piperidin-4-yl]amino}pyridin-3-yl)-1H-pyrazol-4-yl] benzamide]"
17,1.1 nM,"COC1COCCC1N1CCC(Nc2cncc(-n3cc(-c4cc(C(=O)NC5CC5)ccc4C)cn3)c2)CC1 (stereo not shown) [Example 163, N-cyclopropyl-3-[1-(5-{[1-(3-methoxyoxan-4-yl)piperidin-4-yl]amino}pyridin-3-yl)-1H-pyrazol-4-yl]-4-methylbenzamide]"
18,2.1 nM,"Cc1ccc(C(=O)NC2CC2)cc1-c1cnn(-c2cncc(NC3CCN(C4CCOCC4C)CC3)c2)c1 (stereo not shown) [Example 164, N-cyclopropyl-4-methyl-3-[1-(5-{[1-(3-methyloxan-4-yl)piperidin-4-yl]amino}pyridin-3-yl)-1H-pyrazol-4-yl]benzamide]"
19,1.2 nM,"Cc1ccc(C(=O)NC2CC2)cc1-c1cnn(-c2cncc(NC3CCN(C4CCOC(C)C4)CC3)c2)c1 (stereo not shown) [Example 165, N-cyclopropyl-4-methyl-3-[1-(5-{[1-(2-methyloxan-4-yl)piperidin-4-yl]amino}pyridin-3-yl)-1H-pyrazol-4-yl]benzamide]"
20,0.94 nM,"Cc1ccc(C(=O)NC2CC2)cc1-c1cnn(-c2cncc(NC3CCN(C4CCOC4)CC3)c2)c1 (stereo not shown) [Example 166, N-cyclopropyl-4-methyl-3-[1-(5-{[1-(oxolan-3-yl)piperidin-4-yl]amino}pyridin-3-yl)-1H-pyrazol-4-yl] benzamide]"
21,1 nM,"Cc1ccc(C(=O)NC2CC2)cc1-c1cnn(-c2cncc(NC3CCN(CC4C5COCC54)CC3)c2)c1 (stereo not shown) [Example 167, N-cyclopropyl-4-methyl-3-(1-{5-[(1-{3-oxabicyclo[3.1.0]hexan-6-ylmethyl}piperidin-4-yl)amino]pyridin-3-yl}-1H-pyrazol-4-yl) benzamide]"
22,0.95 nM,"Cc1ccc(C(=O)NC2CC2)cc1-c1cnn(-c2cncc(NC3CCN(CC4COCCO4)CC3)c2)c1 (stereo not shown) [Example 168, N-cyclopropyl-3-[1-(5-{[1-(1,4-dioxan-2-ylmethyl)piperidin-4-yl]amino}pyridin-3-yl)-1H-pyrazol-4-yl]-4-methylbenzamide]"
23,1.3 nM,Cc1cc(F)c(C(=O)NC2CC2)cc1-c1cnn(-c2cncc(N[C@H]3CCN(C)C[C@H]3F)c2)c1 [Example 169]
24,1.8 nM,Cc1cc(F)c(C(=O)NC2CC2)cc1-c1cnn(-c2cncc(N[C@@H]3CCN(C)C[C@@H]3F)c2)c1 [Example 170]

row,SMILES,IC50
1,"Cc1ccc(C(=O)NC2CC2)cc1-c1cnn(-c2cncc(OC3CC(CO)(CO)C3)c2)c1 [Example 152, 3-(1-{5-[3,3-bis(hydroxymethyl)cyclobutoxy]pyridin-3-yl}-1H-pyrazol-4-yl)-N-cyclopropyl-4-methylbenzamide]",4.2 nM

# Reference: patent US10138222B2, “Substituted benzamides as RIPK2 inhibitors” (Boehringer Ingelheim International GmbH, priority 2016, dated 2018)
